Patent US20180185360A1, “CGRP RECEPTOR ANTAGONIST COMPOUNDS FOR TOPICAL TREATMENT OF SKIN DISORDERS” (GALDERMA RESEARCH & DEVELOPMENT, priority 2015, published 2018)

Experiments:
[1] = test system: Dermatophagoides farinae (Der f)-induced AD-like skin inflammation; assay: Der f-induced atopic dermatitis mouse model; assay type: in vivo, Balb/c mice
Procedure: Der f has been purchased from Greer Laboratories and a Der f solution has been prepared in 70% DMSO in MilliQ water. 375 μg of Der f has been applied during 7 weeks on the left ear of mice. Compounds to be tested were applied every day of the week except during the weekend, on the Der f treated ear from week 4 until day 44. • 1.2. Compounds • 1.2.1. MK3207 (CD10192/41) MK3207 (CD10192/41) has been provided by Galderma and 3% of MK3207 (CD10192/41) solutions in ethanol have been prepared. • 1.2.2. Triamcinolone Acetonide Triamcinolone acetonide has been chosen as positive control for the Der f model. 0.01% of triamcinolone acetonide solution in ethanol has been used. • 1.2.3. Ethanol Ethanol 100 has been chosen as a vehicle to solubilize the compounds. • 1.3. Mice Balb/c mice strain has been used for the study. These animals have been obtained from controlled breeding and were specific pathogen free. The animals have been provided by Janvier SAS, France. • 1.4. Protocol AD-like lesions have been induced by topical application of 375 μl of Der f solution on each side of the left ear for 7 weeks at day 1, day 8, day 15, day 22, day 29, day 36 and day 43. Mice have been treated from day 20 to day 43 five days by week with the different solutions administrated by the topical route. Measurement of ear swelling has been monitored 24 hours after each allergen application. After day 19, ear swelling has been daily measured before compound application. After mouse euthanasia, at Day 44 the left ear has been collected and has been washed in ethanol 70% and has been rinsed in PBS. Skin biopsies of the left ear, have then been collected for cytokines profile quantification with Luminex technique and for the quantification of the eosinophil peroxidase thanks to the ELISA method. Draining lymph nodes have been collected and cultivated a whole night restimulated or not with 0.5 mg/ml of Der f extract before quantifying the number of Der f specific lymphocytes T producing INFγ.

[2] = clinical development discontinued; cited from earlier work
[3] = Skin concentration two hours after single topical application on the mouse ear; assay type: in vivo, BALB/c mice; details: 0.003% to 3%
Source text: (§1) This study has been conducted on BALB/c mice, 5 mice per group have been used.
At the end of the scan, blood is collected from the abdominal artery on anesthetized animals. The animals are then euthanatized and the treated ear collected and weighted. Plasma and ear are snapped frozen.

[4] = test system: imiquimod (Aldara) induced psoriasiform skin inflammation; assay: Imiquimod induced psoriasiform mice model; assay type: in vivo, Balb/c mice; details: CD10192/41 at 2% topical twice daily, 2 h before and 6 h after Aldara
Procedure: Imiquimod psoriasiform model has been induced by daily topical application of Aldara (3.18 mg of imiquimod) for 3 or 7 days on the shaved back skin of Balb/c mice. The pharmacodynamic analysis were performed by using a transcriptional analysis at D4, a histological analysis at D4 and D8, a cells analysis at D8 and a Cytokines analysis at D8. • 1.2. Compounds • 1.2.1. Imiquimod
Imiquimod is sold under the name Aldara™ 5% by 3M-Pharmaceutical. 63.5 mg of Aldara cream is applied on the back skin of the mice, representing 3.2 mg of active compound. • 1.2.2. MK3207 (CD10192/41)
MK3207 compound is dissolved in PG/Ethanol 96 (30/70) and applied twice daily 2 h 00 before and 6 h 00 after Aldara treatment. • 1.2.3. Vehicles
PG/Ethanol (30/70) is used as a vehicle. • 1.2.4. Positive Control
CD0153F (Betamethasone valerate) at 0.01% (0.210 mM) in acetone by topical route is used as positive control. • 1.3. Mice
Balb/c mice strain has been used for the study. These animals have been obtained from controlled breeding and were specific pathogen free. The animals have been provided by Janvier SAS, France. • 1.4. Protocol […]
At day 4 skin biopsies were collected for quantifying gene expression of the inflammatory response via RT-PCR and for measuring epidermis thickness via histological stained slides (HE). […]

[5] = test system: αCGRP-induced skin blood perfusion increase; assay: CGRP-induced mice model of vasodilatation (Laser Doppler skin blood perfusion, right ear); assay type: in vivo, BALB/c mice; details: for decrease of the CGRP flush (AUC skin blood perfusion 0 to 15 min): topical, 90 min prior to αCGRP 20 μg/kg i.v.
Procedure: as §1
Body temperature was maintained at 35° C.-37° C. using an automated heating pad. Images were obtained from Laser Doppler perfusion imaging PIM3 (Perimed, France). For each mouse, the skin blood perfusion was evaluated every minute on the right ear. The laser beam of the PIM3 scanned a skin area of 2×2 cm. Prior to the treatment, 2 scans were performed.
The duration of the recording was 22 minutes in total.
The blood perfusion is mapped as colour coded images at intervals of 1 min. For each mouse ear, the area corresponding to the internal part of the ear is defined and adjusted for each image. From this selected area, we take the highest of the first two images as the background of blood perfusion (I ref). The background value is then subtracted from the next images of the kinetic.
The software calculates the erythematous surface (S) and the mean of the blood perfusion intensity (I) in this surface for the region of interest for all the images. […] For each time of kinetic, the relative area of blood perfusion is calculated as follow: Relative area of perfusion=(I/I ref)×S

[6] = MK3207 3% topical, day 44, ear skin biopsies, Luminex

Row | SMILES | eosinophil peroxidase production (EPX) ([1]; MK3207 3% topical, day 44, ear skin biopsies, ELISA) | production of IL17A [1, 6] | production of IL-4 [1, 6] | production of IL-5 [1, 6] | production of IL-13 [1, 6] | production of TNFα [1, 6] | production of IFNγ by lymphocyte T cells ([1]; draining lymph nodes restimulated with Der f, MK3207 3%, triamcinolone acetonide 0.01% topical) | ear swelling ([1]; topical MK3207, as soon as day 27 with a similar effect until day 43) | ear swelling / ear edema ([1]; topical in ethanol, MK3207 3% (day 44), triamcinolone acetonide 0.01%) | toxicity associated with oral use [2] | detection in skin samples [3] | reduction of the epidermis thickness ([4]; day 4) | reduction of the number of IL17-production within the γδ T cells ([4]; day 8) | decrease of the CGRP flush (AUC skin blood perfusion 0 to 15 min) ([5]; MK3207 0.003% in ethanol, NS, p=0.2259) | decrease of the CGRP flush (AUC skin blood perfusion 0 to 15 min) ([5]; MK3207 0.03% in ethanol, NS, p=0.0567) | decrease of the CGRP flush (AUC skin blood perfusion 0 to 15 min) ([5]; MK3207 0.3% in ethanol, p=0.0112) | decrease of the CGRP flush (AUC skin blood perfusion 0 to 15 min) ([5]; MK3207 3% in ethanol, p=0.0083) | inhibition of αCGRP-induced increase in skin blood perfusion, dose dependence ([5]; topical 0.003% to 3%, 90 minutes prior to αCGRP, p=0.0017)
1 | O=C(CN1C(=O)C2(CCCC2)NC[C@H]1c1cc(F)cc(F)c1)Nc1ccc2c(c1)C[C@@]1(C2)C(=O)Nc2ncccc21 [MK3207, 2-[(8R)-8-(3,5-difluorophenyl)-10-oxo-6,9-diazaspiro[4.5]dec-9-yl]-N-[(2R)-2′-oxo-1,1′,2′,3-tetrahydrospiro[indene-2,3′-pyrrolo[2,3-b]pyridin]-5-yl]acetamide] | reduction | significantly reduced | significantly reduced | significantly reduced | significantly reduced | significantly reduced | decrease | decrease | decrease | severe hepatotoxicity | detected in skin samples at all doses tested | 33% | 55% | 31% | 49% | 70% | 80% | inhibited this increase in a dose-dependent manner
2 | O=C(N[C@@H]1CC[C@@H](c2cccc(F)c2F)CN(CC(F)(F)F)C1=O)N1CCC(n2c(=O)[nH]c3ncccc32)CC1 [telcagepant, reference compound] |  |  |  |  |  |  |  |  |  | severe hepatotoxicity |  |  |  |  |  |  |  | 
3 | NCCCC[C@H](NC(=O)[C@@H](Cc1cc(Br)c(O)c(Br)c1)NC(=O)N1CCC(N2Cc3ccccc3NC2=O)CC1)C(=O)N1CCN(c2ccncc2)CC1 [olcegepant, reference compound] |  |  |  |  |  |  |  |  |  | severe hepatotoxicity |  |  |  |  |  |  |  | 
